Source: ChEMBL document CHEMBL4354805, “Discovery of MK-8719, a Potent O-GlcNAcase Inhibitor as a Potential Treatment for Tauopathies” (J Med Chem, 2019)
Values belong to the compound of their own block, whether it stands above or below them.

Assays:
[1] = biological target: T1, Protein O-GlcNAcase (Homo sapiens, UniProt O60502); experiment: Inhibition of recombinant human OGA
T1 sequence (O60502 whole entry): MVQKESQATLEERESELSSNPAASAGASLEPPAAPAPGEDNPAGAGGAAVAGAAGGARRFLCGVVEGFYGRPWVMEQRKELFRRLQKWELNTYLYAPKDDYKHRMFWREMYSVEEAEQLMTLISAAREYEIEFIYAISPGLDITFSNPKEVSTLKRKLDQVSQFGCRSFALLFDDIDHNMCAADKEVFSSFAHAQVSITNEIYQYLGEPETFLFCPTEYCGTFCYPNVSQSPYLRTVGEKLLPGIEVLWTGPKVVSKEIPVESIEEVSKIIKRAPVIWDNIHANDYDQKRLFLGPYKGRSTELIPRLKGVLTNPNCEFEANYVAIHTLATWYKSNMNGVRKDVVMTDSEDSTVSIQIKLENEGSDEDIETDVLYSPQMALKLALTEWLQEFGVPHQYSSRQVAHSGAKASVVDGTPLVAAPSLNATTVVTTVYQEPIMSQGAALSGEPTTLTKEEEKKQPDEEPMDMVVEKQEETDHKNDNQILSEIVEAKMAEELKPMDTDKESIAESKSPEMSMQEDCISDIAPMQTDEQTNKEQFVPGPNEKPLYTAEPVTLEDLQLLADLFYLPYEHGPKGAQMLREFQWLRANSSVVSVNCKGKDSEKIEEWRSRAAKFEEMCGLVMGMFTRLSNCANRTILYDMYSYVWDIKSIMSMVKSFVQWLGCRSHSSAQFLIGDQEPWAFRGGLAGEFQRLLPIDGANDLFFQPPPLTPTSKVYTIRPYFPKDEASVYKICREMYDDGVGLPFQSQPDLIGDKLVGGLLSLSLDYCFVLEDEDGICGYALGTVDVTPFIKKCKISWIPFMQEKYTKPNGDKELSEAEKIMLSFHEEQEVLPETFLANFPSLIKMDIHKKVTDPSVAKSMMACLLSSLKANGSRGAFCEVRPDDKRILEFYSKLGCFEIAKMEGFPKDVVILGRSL

[2] = biological target: T2, Beta-hexosaminidase subunit beta (Homo sapiens, UniProt P07686); experiment: Inhibition of human beta hexosaminidase assessed as inhibitory constant using 4-methylumbelliferyl N-acetyl-beta-D-glucosaminide dihydrate as substrate measured every 60 sec for 45 mins by fluorescence spectrophotometry
T2 sequence (P07686 whole entry): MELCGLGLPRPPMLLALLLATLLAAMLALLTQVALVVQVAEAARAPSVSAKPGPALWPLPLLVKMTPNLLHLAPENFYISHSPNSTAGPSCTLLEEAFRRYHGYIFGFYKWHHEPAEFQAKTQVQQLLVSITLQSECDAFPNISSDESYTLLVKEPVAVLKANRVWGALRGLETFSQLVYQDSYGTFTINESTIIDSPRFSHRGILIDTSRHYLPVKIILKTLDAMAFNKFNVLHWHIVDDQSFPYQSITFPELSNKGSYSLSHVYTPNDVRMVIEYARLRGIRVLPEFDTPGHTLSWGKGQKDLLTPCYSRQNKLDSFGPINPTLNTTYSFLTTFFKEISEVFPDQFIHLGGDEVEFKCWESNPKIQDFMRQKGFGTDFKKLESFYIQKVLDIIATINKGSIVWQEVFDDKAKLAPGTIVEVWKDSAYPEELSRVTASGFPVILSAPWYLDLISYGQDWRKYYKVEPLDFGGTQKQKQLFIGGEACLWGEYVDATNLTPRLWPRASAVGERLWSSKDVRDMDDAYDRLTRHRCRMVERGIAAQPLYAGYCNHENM

[3] = biological target: T3, Protein O-GlcNAcase (Rattus norvegicus, UniProt Q8VIJ5); experiment: Inhibition of OGA in rat PC12 cells assessed as OGlcNAcylated protein level incubated for 24 hrs by ELISA; type: cell-based
T3 sequence (Q8VIJ5 whole entry): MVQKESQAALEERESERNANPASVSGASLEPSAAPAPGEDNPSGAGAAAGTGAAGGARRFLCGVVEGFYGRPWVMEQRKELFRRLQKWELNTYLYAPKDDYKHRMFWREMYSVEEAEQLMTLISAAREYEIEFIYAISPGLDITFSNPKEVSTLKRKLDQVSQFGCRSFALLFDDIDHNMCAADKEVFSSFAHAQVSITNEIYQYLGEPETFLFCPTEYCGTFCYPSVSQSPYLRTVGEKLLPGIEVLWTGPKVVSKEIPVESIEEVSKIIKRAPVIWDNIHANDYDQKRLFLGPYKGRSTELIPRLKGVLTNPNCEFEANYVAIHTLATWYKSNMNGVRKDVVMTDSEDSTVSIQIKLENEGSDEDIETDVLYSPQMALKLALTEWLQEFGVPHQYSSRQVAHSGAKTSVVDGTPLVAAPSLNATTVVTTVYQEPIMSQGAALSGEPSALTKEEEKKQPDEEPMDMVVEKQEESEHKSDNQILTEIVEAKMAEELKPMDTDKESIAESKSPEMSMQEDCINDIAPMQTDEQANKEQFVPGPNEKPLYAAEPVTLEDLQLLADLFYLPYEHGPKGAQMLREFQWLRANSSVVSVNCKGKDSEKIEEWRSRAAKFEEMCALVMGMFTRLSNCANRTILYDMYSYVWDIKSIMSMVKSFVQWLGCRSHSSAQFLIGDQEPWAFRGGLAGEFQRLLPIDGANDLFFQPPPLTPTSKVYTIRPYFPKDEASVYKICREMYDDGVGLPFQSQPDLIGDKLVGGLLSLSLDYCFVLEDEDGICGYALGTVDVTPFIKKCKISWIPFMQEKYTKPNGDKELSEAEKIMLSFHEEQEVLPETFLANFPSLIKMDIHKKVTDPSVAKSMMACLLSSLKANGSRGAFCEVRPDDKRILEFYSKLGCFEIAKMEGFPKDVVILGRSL

[4] = tested on: MDR1; experiment: Apparent permeability in pig LLC-PK1 cells transfected with MDR1; type: ADME, cell-based, Sus scrofa
[5] = biological target: Cytochrome P450 3A4 (Homo sapiens, UniProt P08684); experiment: Inhibition of CYP3A4 (unknown origin); type: ADME
Chain of Cytochrome P450 3A4 (P08684 whole entry): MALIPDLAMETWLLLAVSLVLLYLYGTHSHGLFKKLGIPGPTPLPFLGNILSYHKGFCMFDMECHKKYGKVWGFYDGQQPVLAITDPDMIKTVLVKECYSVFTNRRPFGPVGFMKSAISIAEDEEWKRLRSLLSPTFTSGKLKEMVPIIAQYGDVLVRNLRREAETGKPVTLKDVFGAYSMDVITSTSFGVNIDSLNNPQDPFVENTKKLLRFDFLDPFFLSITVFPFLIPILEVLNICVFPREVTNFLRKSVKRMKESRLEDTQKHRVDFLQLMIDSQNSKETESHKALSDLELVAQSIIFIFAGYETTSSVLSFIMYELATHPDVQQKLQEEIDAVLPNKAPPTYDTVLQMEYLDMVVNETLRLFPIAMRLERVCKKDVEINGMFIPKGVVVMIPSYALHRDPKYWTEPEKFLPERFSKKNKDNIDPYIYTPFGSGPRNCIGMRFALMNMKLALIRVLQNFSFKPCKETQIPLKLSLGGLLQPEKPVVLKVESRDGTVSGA

[6] = biological target: Cytochrome P450 2D6 (Homo sapiens, UniProt P10635); experiment: Inhibition of CYP2D6 (unknown origin); type: ADME
[7] = biological target: Voltage-gated inwardly rectifying potassium channel KCNH2 (Homo sapiens, UniProt Q12809); experiment: Displacement of MK-0499 from human ERG
[8] = biological target: Cytochrome P450 2C9 (Homo sapiens, UniProt P11712); experiment: Inhibition of CYP2C9 (unknown origin); type: ADME
[9] = biological target: T4, Nuclear receptor subfamily 1 group I member 2 (Homo sapiens, UniProt O75469); experiment: Activation of PXR (unknown origin) assessed as CYP3A4 induction
T4 sequence (O75469 whole entry): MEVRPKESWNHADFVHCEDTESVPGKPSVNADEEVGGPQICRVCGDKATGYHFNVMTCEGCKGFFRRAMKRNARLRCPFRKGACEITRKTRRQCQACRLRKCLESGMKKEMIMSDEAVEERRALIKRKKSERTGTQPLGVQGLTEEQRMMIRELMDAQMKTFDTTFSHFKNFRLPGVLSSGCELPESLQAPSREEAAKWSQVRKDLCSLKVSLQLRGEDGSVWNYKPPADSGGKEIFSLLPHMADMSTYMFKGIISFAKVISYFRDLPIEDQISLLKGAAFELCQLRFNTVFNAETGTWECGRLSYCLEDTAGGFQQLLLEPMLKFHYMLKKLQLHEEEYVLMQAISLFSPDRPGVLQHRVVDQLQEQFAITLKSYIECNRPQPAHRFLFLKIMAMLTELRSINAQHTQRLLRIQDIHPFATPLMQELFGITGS

[10] = biological target: Voltage-dependent L-type calcium channel subunit alpha-1C (Homo sapiens, UniProt Q13936); experiment: Inhibition of Cav1.2 (unknown origin)
Chain of Voltage-dependent L-type calcium channel subunit alpha-1C (Q13936 whole entry): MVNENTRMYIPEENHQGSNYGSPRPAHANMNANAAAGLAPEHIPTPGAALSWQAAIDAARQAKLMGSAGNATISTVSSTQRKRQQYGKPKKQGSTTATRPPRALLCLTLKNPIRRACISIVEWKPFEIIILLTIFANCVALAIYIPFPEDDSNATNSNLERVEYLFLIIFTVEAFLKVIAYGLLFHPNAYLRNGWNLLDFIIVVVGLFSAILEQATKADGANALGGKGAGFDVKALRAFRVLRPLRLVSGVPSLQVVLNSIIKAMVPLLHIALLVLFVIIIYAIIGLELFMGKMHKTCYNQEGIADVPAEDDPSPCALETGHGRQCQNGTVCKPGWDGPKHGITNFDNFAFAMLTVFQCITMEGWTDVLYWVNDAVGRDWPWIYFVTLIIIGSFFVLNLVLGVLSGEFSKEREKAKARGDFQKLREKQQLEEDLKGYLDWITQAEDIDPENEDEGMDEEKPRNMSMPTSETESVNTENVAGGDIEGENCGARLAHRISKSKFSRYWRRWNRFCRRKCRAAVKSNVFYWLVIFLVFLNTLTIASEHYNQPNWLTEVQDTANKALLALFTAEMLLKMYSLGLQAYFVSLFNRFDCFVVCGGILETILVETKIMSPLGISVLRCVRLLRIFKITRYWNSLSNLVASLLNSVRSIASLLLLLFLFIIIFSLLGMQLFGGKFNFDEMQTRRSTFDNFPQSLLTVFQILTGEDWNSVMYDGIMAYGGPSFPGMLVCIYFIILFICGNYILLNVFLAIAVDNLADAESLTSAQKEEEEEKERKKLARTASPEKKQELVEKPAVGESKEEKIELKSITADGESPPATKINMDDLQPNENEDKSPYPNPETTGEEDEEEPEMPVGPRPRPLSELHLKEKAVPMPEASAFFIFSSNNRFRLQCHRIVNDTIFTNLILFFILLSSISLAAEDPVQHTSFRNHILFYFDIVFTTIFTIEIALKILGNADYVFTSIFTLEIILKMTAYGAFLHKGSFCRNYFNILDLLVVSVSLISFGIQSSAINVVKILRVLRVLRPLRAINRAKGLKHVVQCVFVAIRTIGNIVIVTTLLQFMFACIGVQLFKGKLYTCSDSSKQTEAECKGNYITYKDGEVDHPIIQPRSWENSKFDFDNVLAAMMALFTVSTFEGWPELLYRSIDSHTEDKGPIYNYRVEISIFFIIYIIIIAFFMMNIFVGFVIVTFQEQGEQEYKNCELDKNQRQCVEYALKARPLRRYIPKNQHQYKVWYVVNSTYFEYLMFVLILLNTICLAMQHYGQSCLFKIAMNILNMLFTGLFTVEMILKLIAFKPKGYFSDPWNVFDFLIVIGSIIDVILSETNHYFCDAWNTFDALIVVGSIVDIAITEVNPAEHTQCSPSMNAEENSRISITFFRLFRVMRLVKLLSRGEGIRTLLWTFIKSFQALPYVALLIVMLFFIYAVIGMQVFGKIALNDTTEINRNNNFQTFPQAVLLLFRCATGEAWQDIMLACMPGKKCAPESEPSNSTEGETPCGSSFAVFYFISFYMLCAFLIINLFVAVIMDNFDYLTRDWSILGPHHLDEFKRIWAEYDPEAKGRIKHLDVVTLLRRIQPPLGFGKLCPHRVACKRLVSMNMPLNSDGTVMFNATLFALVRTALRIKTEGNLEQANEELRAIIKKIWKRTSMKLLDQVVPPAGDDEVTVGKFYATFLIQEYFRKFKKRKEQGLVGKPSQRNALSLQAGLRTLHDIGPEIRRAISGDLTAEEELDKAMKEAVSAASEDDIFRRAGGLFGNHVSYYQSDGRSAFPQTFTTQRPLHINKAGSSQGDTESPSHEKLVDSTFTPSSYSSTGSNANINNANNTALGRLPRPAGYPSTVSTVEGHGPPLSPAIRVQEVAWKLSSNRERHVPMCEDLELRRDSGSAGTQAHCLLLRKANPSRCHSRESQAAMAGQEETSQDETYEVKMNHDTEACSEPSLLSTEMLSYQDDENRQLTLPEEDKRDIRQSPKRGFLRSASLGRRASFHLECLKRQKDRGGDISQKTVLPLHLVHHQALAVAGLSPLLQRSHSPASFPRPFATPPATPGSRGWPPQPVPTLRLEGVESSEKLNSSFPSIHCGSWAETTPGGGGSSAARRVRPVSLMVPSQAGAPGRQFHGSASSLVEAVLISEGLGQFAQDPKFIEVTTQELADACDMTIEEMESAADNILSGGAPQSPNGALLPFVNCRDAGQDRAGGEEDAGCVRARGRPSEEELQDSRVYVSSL

[11] = biological target: Sodium channel protein type 5 subunit alpha (Homo sapiens, UniProt Q14524); experiment: Inhibition of Nav1.5 (unknown origin)
Chain of Sodium channel protein type 5 subunit alpha (Q14524 whole entry): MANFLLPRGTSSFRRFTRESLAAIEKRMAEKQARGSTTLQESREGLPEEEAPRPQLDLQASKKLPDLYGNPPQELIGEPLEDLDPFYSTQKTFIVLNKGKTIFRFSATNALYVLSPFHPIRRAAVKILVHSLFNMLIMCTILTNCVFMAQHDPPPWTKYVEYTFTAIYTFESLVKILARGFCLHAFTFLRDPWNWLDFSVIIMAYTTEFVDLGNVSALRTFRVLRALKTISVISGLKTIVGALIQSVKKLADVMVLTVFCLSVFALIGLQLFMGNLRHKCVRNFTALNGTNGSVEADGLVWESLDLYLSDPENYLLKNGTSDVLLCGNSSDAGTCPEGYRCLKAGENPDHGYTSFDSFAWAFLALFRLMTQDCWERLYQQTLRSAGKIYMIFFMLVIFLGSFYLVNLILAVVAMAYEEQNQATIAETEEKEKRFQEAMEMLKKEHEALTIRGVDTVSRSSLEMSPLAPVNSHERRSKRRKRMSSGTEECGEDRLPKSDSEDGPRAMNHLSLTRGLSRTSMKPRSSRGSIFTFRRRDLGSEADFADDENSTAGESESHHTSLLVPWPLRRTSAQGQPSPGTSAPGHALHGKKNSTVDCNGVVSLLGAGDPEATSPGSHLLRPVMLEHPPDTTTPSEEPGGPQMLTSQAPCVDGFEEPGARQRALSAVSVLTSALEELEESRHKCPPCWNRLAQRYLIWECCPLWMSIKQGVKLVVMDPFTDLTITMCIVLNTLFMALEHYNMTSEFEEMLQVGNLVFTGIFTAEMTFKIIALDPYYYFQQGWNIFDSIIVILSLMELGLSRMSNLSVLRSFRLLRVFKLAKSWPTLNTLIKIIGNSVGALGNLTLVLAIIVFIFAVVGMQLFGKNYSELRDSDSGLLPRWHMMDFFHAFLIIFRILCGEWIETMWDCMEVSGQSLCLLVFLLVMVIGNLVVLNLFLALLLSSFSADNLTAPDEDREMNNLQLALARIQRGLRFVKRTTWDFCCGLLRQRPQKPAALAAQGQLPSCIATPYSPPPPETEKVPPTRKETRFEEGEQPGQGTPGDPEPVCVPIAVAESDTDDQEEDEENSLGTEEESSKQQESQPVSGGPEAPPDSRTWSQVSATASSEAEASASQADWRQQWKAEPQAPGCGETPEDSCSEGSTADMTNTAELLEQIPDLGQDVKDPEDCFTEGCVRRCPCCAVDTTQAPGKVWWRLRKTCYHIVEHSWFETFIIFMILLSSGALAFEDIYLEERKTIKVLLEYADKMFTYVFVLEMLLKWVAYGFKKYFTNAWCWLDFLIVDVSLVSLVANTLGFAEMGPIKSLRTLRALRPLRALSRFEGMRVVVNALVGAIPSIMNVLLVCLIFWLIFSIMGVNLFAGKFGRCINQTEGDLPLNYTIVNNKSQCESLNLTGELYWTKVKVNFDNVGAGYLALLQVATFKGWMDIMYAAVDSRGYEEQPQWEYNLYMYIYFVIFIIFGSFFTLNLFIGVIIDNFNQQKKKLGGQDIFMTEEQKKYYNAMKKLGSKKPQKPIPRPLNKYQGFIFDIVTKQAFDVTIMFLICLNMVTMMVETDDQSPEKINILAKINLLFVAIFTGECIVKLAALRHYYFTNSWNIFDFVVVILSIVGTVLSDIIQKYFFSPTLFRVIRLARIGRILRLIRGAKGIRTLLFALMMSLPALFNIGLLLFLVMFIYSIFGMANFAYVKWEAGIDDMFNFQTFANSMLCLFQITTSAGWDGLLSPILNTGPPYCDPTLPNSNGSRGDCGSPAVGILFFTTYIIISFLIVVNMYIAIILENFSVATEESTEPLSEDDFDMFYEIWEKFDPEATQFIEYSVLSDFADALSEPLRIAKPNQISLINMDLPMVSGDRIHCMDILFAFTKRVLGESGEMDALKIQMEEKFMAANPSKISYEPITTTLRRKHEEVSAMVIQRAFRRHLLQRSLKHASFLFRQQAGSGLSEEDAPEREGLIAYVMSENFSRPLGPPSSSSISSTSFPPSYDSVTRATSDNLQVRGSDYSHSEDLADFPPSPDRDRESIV

[12] = Clearance in Wistar Han rat at 2 mg/kg, iv; type: ADME, organism-based; details: in vivo
[13] = Volume of distribution at steady state in Wistar Han rat at 2 mg/kg, iv or 3 mg/kg, po; type: ADME, organism-based; details: in vivo, read-out: Vdss
[14] = Oral bioavailability in Wistar Han rat at 3 mg/kg; type: ADME, organism-based; details: in vivo
[15] = Half life in Wistar Han rat at 2 mg/kg, iv; type: ADME, organism-based; details: in vivo
[16] = AUCN in Wistar Han rat at 3 mg/kg, po; type: ADME, organism-based; details: in vivo

Compound: NC1=N[C@@H]2[C@@H](O)[C@H](O)[C@@H](CF)O[C@@H]2S1
Ki [1]: 1.2 µM

Ki [1]: 0.05 µM | Ki [2]: > 10 µM
Compound: CNC1=N[C@@H]2[C@@H](F)[C@H](O)[C@@H](CF)O[C@@H]2S1

Ki [1]: 0.2 µM | Ki [2]: > 10 µM
Compound: O[C@H]1[C@H](O)[C@@H](CF)O[C@@H]2SC(N3CCC3)=N[C@H]12

Ki [1]: 0.76 µM | EC50 [3]: 2.4 µM | Papp [4]: 9.2 ×10⁻⁶ cm/s | Ki [2]: > 10 µM
Compound: NC1=N[C@@H]2[C@@H](O)[C@H](O)[C@@H](C(F)F)O[C@@H]2S1

Ki [1]: 0.27 µM | IC50 [5]: > 50 µM | IC50 [6]: > 50 µM | Ki [2]: > 10 µM | IC50 [8]: > 50 µM | EC50 [9]: > 30 µM
Compound: CCNC1=N[C@@H]2[C@@H](OC)[C@H](O)[C@@H](CO)O[C@@H]2S1
IC50 [7]: > 30 µM | IC50 [10]: > 30 µM | IC50 [11]: > 30 µM

Ki [1]: 1.8 µM | Ki [2]: > 10 µM
Compound: OC[C@H]1O[C@@H]2SC(N3CCCCC3)=N[C@@H]2[C@@H](O)[C@@H]1O

Ki [1]: 0.072 µM | Papp [4]: 2.4 ×10⁻⁶ cm/s | Ki [2]: > 10 µM
Compound: CC1CN(C2=N[C@@H]3[C@@H](O)[C@H](O)[C@@H](CO)O[C@@H]3S2)C1

Ki [1]: > 3 µM | Papp [4]: 31 ×10⁻⁶ cm/s | Ki [2]: > 10 µM
Compound: CN(C)C1=N[C@@H]2C[C@H](O)[C@@H](C(F)F)O[C@@H]2S1

Ki [1]: > 3 µM | Ki [2]: > 10 µM
Compound: NC1=N[C@@H]2C[C@H](O)[C@@H](CO)O[C@@H]2S1

Ki [1]: 0.19 µM | IC50 [5]: > 50 µM | IC50 [6]: > 50 µM | IC50 [8]: > 50 µM | EC50 [9]: > 30 µM
Compound: CCNC1=N[C@@H]2[C@@H](O)[C@H](O)[C@@H](COC)O[C@@H]2S1
IC50 [7]: > 30 µM | IC50 [10]: > 30 µM | IC50 [11]: > 30 µM

Ki [1]: 0.041 µM | Ki [2]: > 10 µM
Compound: CN(C)C1=N[C@@H]2[C@@H](F)[C@H](O)[C@@H](CO)O[C@@H]2S1

Ki [1]: > 3 µM | IC50 [5]: > 50 µM | IC50 [6]: > 50 µM | IC50 [8]: > 50 µM | EC50 [9]: > 30 µM
Compound: CCNC1=N[C@@H]2[C@@H](O)[C@H](OC)[C@@H](CO)O[C@@H]2S1
IC50 [7]: > 30 µM | IC50 [10]: > 30 µM | IC50 [11]: > 30 µM

Ki [1]: > 3 µM | Ki [2]: > 10 µM
Compound: OC[C@H]1O[C@@H]2SC(N3CCC(F)CC3)=N[C@@H]2[C@@H](O)[C@@H]1O

clearance [12]: 48.1 mL/min/kg | Vd [13]: 1.92 L/kg | Ki [1]: 0.014 µM | EC50 [3]: 0.445 µM | Ki [2]: > 10 µM | bioavailability [14]: 30.1% | half-life [15]: 1.69 h | AUC/dose [16]: 0.394 µM·kg·h/mg
Compound: CCCNC1=N[C@@H]2[C@@H](F)[C@H](O)[C@@H](CO)O[C@@H]2S1
